For orientation: stoichiometry N means a count of units in the complex or per binding partner.

Series [1] concerns the target T1, GST-DEC (Dopey1 extreme C-terminal region) (Homo sapiens, UniProt B2RWN9).
T1 construct: DEC domain, residues 2146-2456, N-terminal GST fusion kept, E. coli BL21 DE3, detergent-free; dimeric through GST
T1 sequence (B2RWN9 2146-2456): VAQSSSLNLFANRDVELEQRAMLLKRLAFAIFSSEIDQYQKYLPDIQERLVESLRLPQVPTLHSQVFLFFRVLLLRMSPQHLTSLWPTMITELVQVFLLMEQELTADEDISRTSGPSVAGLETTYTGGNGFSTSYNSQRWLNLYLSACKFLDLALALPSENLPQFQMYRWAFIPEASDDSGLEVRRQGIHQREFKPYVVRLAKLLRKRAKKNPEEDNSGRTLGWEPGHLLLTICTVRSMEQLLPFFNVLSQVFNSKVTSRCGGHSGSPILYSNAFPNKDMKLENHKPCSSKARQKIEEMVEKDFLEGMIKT
Briefly: liposome pull-down with diluted protein, Western blot. The series is classed as binding. The conditions noted are these: read-out: apparent affinity.

Series [2] deals with the molecule itself. Kind of series: single-molecule photo-bleaching steps (TIRF microscopy); GFP-fusion protein in HEK293T lysate (20 mM Tris pH 7.4) immobilised on a glass coverslip; photo-bleaching steps counted; expressed alone.

Turning to PI4P, the Kd in series [1] was around 1000 nM.

B1: Mon2, full length, transfected (natural protein, UniProt Q7Z3U7 1-1717, looked up)
chain: MSGTSSPEAVKKLLENMQSDLRALSLECKKKFPPVKEAAESGIIKVKTIAARNTEILAALKENSSEVVQPFLMGCGTKEPKITQLCLAAIQRLMSHEVVSETAAGNIINMLWQLMENSLEELKLLQTVLVLLTTNTVVHDEALSKAIVLCFRLHFTKDNITNNTAAATVRQVVTVVFERMVAEDERHRDIIEQPVLVQGNSNRRSVSTLKPCAKDAYMLFQDLCQLVNADAPYWLVGMTEMTRTFGLELLESVLNDFPQVFLQHQEFSFLLKERVCPLVIKLFSPNIKFRQGSSTSSSPAPVEKPYFPICMRLLRVVSVLIKQFYSLLVTECEIFLSLLVKFLDADKPQWLRAVAVESIHRFCVQPQLLRSFCQSYDMKQHSTKVFRDIVNALGSFIQSLFLVPPTGNPATSNQAGNNNLGGSVSAPANSGMVGIGGGVTLLPAFEYRGTWIPILTITVQGSAKATYLEMLDKVEPPTIPEGYAMSVAFHCLLDLVRGITSMIEGELGELETECQTTTEEGSSPTQSTEQQDLQSTSDQMDKEIVSRAVWEEMVNACWCGLLAALSLLLDASTDEAATENILKAELTMAALCGRLGLVTSRDAFITAICKGSLPPHYALTVLNTTTAATLSNKSYSVQGQSVMMISPSSESHQQVVAVGQPLAVQPQGTVMLTSKNIQCMRTLLNLAHCHGAVLGTSWQLVLATLQHLVWILGLKPSSGGALKPGRAVEGPSTVLTTAVMTDLPVISNILSRLFESSQYLDDVSLHHLINALCSLSLEAMDMAYGNNKEPSLFAVAKLLETGLVNMHRIEILWRPLTGHLLEVCQHPNSRMREWGAEALTSLIKAGLTFNHDPPLSQNQRLQLLLLNPLKEMSNINHPDIRLKQLECVLQILQSQGDSLGPGWPLVLGVMGAIRNDQGESLIRTAFQCLQLVVTDFLPTMPCTCLQIVVDVAGSFGLHNQELNISLTSIGLLWNISDYFFQRGETIEKELNKEEAAQQKQAEEKGVVLNRPFHPAPPFDCLWLCLYAKLGELCVDPRPAVRKSAGQTLFSTIGAHGTLLQHSTWHTVIWKVLFHLLDRVRESSTTADKEKIESGGGNILIHHSRDTAEKQWAETWVLTLAGVARIFNTRRYLLQPLGDFSRAWDVLLDHIQSAALSKNNEVSLAALKSFQEILQIVSPVRDSDKPETPPVVNVPVPVLIGPISGMSRPFVRTDSIGEKLGRYSSSEPPIVTDELEDLNLWWAAWNTWYRIGSESTKPPITFDKLTFIPSQPFLTALIQIFPALYQHIKTGFNMDDLQKLGVILHSAISVPISSDASPFILPSYTEAVLTSLQEAVLTALDVLQKAICVGPENMQIMYPAIFDQLLAFVEFSCKPPQYGQLETKHIANAKYNQIQLFAPAEWVALNYVPFAERSLEVVVDLYQKTACHKAVVNEKVLQNIIKTLRVPLSLKYSCPSESTWKLAVSSLLRVLSIGLPVARQHASSGKFDSMWPELANTFEDFLFTKSIPPDNLSIQEFQRNENIDVEVVQLISNEILPYANFIPKEFVGQIMTMLNKGSIHSQSSSFTEAEIDIRLREEFSKMCFETLLQFSFSNKVTTPQEGYISRMALSVLLKRSQDVLHRYIEDERLSGKCPLPRQQVTEIIFVLKAVSTLIDSLKKTQPENVDGNTWAQVIALYPTLVECITCSSSEVCSALKEALVPFKDFMQPPASRVQNGES
notes: Mon2, full length; One molecule for the differently tagged copies (GFP-Mon2 and DMyc-Mon2 in the self co-IP); GFP-Mon2 in photo-bleaching; DMyc-Mon2 co-expressed with GFP-Dopey1; also called GFP-Mon2; DMyc-Mon2; source: HEK293T, transfected, in lysate; HeLa, transfected (imaging); not shown: GFP or DMyc or another fluorescence protein (by experiment), N-terminal, kept
As to B1, in series [2], the “stoichiometry N” value was 2.

The values above are taken from paper PMC6642134, “Dopey1-Mon2 complex binds to dual-lipids and recruits kinesin-1 for membrane trafficking” (Nature Communications, 2019).
